Activity calls are given as the source filed them. Rule as the data show it, for most assays here: actives have a measured EC50 and inactives only a lower limit.
What was measured:
[1] = Luminescence Cell-Based Dose Confirmation HTS to Identify Activators of 5'UTR Stem-Loop Driven Alpha-Synuclein mRNA Translation in H4 Neuroglioblastoma Cells. [Related pubchem assays: 1829 (Project Summary), 1814 (Primary HTS)]; type: functional
[2] = Luminescence Cell-Based Dose Response HTS to Identify Activators of Luciferase Translation or Activity in H4 […] Cells. [Related pubchem assays: 1829 (Project Summary), 1814 (Primary HTS)]; type: functional
[3] = test system: H4; assay: Luminescence Cell-Based Dose Response HTS to Identify Activators of 5'UTR Stem-Loop Driven Prion Protein mRNA Translation in H4 Neuroglioblastoma Cells. [Related pubchem assays: 1829 (Project Summary), 1814 (Primary HTS)]; type: functional; conditions: Homo sapiens
[4] = HEp-2 cell cytotoxicity, dose response, cytotoxicity control for RSV inhibitor project, HTS (AID 2410); type: functional; conditions: human respiratory syncytial virus
[5] = test system: Streptococcus sp. 'group A'; assay: growth inhibition of control SK(-) GAS strain, dose response, counter-screen for streptokinase expression inhibitor project, luminescence, kanamycin, BacTiterGlo, confirmation (AID 1900); type: functional, organism-based; conditions: read-out: EC50
[6] = Luminescence Cell-Based Dose Response HTS to Identify Inhibitors of 5'UTR Stem-Loop Driven Prion Protein mRNA Translation in H4 Neuroglioblastoma Cells. [Related pubchem assays: 1827 (Project Summary), 1813 (Primary HTS)]; type: functional
[7] = inhibitors of SNCA 5'UTR-driven reporter translation, confirmation, H4 neuroglioma cells, luminescence (AID 1988); type: functional, cell-based
[8] = test system: Streptococcus; assay: Group A Streptococcus viability loss, dose response, counter-screen for streptokinase expression inhibitor project, luminescence, BacTiterGlo (AID 1915); type: functional, organism-based;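 also: potency for reduction of bacterial viability or growth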
[9] = target: T1, Streptokinase A (Streptococcus pyogenes serotype M1, UniProt P10520); assay: S. pyogenes streptokinase expression inhibitors, potency, dose response, plasminogen activation absorbance, OD405 (AID 1914); type: functional, Streptococcus pyogenes M1 GAS;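 also: secreted streptokinase activity via plasminogen activation per viability signal from cell pellet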
T1 sequence (P10520 whole entry): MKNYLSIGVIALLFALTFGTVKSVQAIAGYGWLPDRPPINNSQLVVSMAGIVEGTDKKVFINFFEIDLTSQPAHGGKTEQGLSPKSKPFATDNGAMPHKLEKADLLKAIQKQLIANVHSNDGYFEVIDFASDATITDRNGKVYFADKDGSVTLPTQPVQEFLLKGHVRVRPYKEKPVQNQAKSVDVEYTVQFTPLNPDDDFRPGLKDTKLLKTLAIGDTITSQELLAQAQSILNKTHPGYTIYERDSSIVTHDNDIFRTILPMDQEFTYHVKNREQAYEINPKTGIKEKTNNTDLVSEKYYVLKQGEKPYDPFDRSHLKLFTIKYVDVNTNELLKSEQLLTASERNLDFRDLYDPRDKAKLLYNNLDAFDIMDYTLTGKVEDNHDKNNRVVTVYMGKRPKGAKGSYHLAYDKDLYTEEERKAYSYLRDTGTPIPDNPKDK

[10] = inhibitors of firefly luciferase expression or activity, dose response, H4 neuroglioma cells, luminescence (AID 1990); type: functional, cell-based
[11] = target: T2, Rac GTPase-activating protein 1 (Homo sapiens, UniProt Q9H0H5); assay: MgcRacGAP GTPase-activating activity inhibitors, confirmation, biochemical, ADP Hunter fluorescence, primary and confirmatory (AID 624330); type: functional
T2 sequence (Q9H0H5 whole entry): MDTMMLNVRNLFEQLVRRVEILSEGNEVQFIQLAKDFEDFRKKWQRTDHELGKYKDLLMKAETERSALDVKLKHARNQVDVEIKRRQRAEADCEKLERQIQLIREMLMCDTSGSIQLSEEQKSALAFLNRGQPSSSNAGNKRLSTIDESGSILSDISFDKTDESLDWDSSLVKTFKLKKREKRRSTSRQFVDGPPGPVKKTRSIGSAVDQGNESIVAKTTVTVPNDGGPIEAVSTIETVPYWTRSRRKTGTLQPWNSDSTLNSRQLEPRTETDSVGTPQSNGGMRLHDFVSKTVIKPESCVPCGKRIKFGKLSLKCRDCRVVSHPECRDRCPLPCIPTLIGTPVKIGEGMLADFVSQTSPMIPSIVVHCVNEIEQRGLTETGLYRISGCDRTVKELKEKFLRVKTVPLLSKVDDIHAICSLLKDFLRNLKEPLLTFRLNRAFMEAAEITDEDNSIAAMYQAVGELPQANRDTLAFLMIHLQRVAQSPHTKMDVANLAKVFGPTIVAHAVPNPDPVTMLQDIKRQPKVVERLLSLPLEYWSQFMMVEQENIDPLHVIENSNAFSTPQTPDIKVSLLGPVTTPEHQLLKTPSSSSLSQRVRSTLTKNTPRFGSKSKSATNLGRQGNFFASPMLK

[12] = test system: INS1; assay: beta cell apoptosis inhibitors, cytokine rescue, dose response, luminescence, retest (AID 449756); type: functional, cell-based; conditions: Rattus norvegicus;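 also: cell death triggered by IL-1 beta plus TNF-alpha plus IFN-gamma mixture; protective hits raise ATP signal compared with cytokine alone wells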
[13] = Luminescence Cell-Based Dose Retest to Confirm Inhibitors of Cancer Stem Cells. [Related pubchem assays (depositor defined):AID2717, AID2721]; type: functional, Homo sapiens; conditions: Homo sapiens
[14] = target: Paired box protein Pax-8 (Homo sapiens, UniProt Q06710); assay: inhibitors of PAX8-driven TPO luciferase reporter, dose response, RMG-I cells, cherry-pick (AID 687027); type: functional, cell-based;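 also: luciferase reporter driven by Pax8 target thyroperoxidase promoter measured by SteadyGlo luminescence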
Sequence of Paired box protein Pax-8 (Q06710 whole entry): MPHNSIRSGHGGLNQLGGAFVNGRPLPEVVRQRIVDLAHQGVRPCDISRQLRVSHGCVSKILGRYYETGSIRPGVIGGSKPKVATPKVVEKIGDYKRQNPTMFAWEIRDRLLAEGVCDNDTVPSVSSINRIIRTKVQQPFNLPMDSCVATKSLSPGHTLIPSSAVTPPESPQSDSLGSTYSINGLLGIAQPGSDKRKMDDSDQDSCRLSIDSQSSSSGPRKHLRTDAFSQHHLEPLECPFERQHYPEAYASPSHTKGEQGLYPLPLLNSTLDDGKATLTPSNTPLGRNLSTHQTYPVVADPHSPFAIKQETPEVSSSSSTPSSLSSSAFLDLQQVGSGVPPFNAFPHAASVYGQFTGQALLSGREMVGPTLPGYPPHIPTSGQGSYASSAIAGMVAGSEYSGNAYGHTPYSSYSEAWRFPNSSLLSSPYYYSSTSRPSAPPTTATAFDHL

Compound | EC50 [1] | EC50 [2] | EC50 [3] | also measured
COc1cccc(-c2nc(-c3ccc4c(c3)NC(=O)CO4)cs2)c1 | 17.7 µM (active) | 22.7 µM (active) | 10.8 µM (active) | 
Cc1cc2c(cc1C)CSC(c1ccccc1OC(=O)C(C)(C)C)SC2 |  |  |  | CC50 [4]: 16.8 µM (active)
COc1ccc(-c2cc(C(F)F)n3ncc(C(=O)N4CCc5ccccc5C4)c3n2)cc1 |  |  |  | CC50 [4]: 28.3 µM (active)
COc1ccc(-c2csc(NC(=O)c3ccc(C(C)(C)C)cc3)c2C(=O)O)cc1 |  |  |  | EC50 [5]: 1.75 µM (active); EC50 [6]: 4.3 µM (active); EC50 [7]: 11.5 µM (active); EC50 [8]: 7.24 µM (active); EC50 [9]: 3.12 µM (inconclusive); EC50 [10]: 14.5 µM (active)
Cc1cnc(NC(=O)CCc2ccccc2)s1 | > 120 µM (not active) | 16.6 µM (active) | 15.2 µM (active) | 
CN1C(=O)C(=Cc2c(OCc3cnc(Cl)s3)ccc3ccccc23)C(=O)N(C)C1=O |  |  |  | CC50 [4]: 20.3 µM (active)
Cc1ccc2nc3ccc(N4CCCC4)nn3c(=O)c2c1 | 0.723 µM (active) | 0.558 µM (active) | > 120 µM (not active) | 
CC(C)(C)c1ccc(C(=O)N2CCN(C(=O)c3ccco3)CC2)cc1 |  |  |  | EC50 [5]: > 150 µM (not active); EC50 [8]: > 150 µM (not active); EC50 [9]: > 150 µM (not active)
CCc1cc2c(=O)c(-c3ccc4c(c3)OCCO4)coc2cc1OC(=O)c1ccco1 |  |  |  | CC50 [4]: 29.9 µM (active)
O=c1cc(Cl)[nH]c(=O)n1CCNc1ncc(C(F)(F)F)cc1Cl | 12.6 µM (active) | 5.68 µM (active) | 7.52 µM (active) | 
Nc1cc(-c2ccc(Br)cc2)nn1S(=O)(=O)c1cccc2nsnc12 |  |  |  | CC50 [4]: 11.2 µM (active)
CSc1ccc(C2c3[nH]c4ccccc4c3CCN2C(=O)c2cc(C)n(C)n2)cc1 (stereo unspecified) | 14.2 µM (active) | 17.1 µM (active) | 11.8 µM (active) | 
COCC1CCN(C(=O)c2ccc3oc(Cc4ccccc4)nc3c2)C1 (stereo unspecified) |  |  |  | EC50 [5]: > 150 µM (not active); EC50 [8]: > 150 µM (not active); EC50 [9]: > 150 µM (not active)
O=C(Nc1cccc(-c2cccc(Cl)c2)c1)C1CCN(Cc2ccc(CO)o2)CC1 |  |  |  | CC50 [4]: 12.7 µM (active)
Cc1ccc(-c2cn(-c3ccccc3)c(SCC(=O)NC3CCS(=O)(=O)C3)n2)cc1C (stereo unspecified) | 1.36 µM (active) | 8.74 µM (active) | 0.301 µM (active) | 
Cc1ccc(C(=O)NCCC(=O)N2CCCC2)cc1 | 0.419 µM (active) | 5.97 µM (active) | > 120 µM (not active) | 
O=C(CSc1nc(O)c2cnn(-c3ccccc3)c2n1)N1N=C(c2cccs2)CC1c1ccc(F)cc1 (stereo unspecified) |  |  |  | EC50 [5]: 3.15 µM (active); EC50 [8]: 7.18 µM (active); EC50 [9]: > 150 µM (not active)
COc1ccccc1NC(=O)Cn1c(CN2CCCCC2)nc2ccccc2c1=O | > 120 µM (not active) | > 120 µM (not active) | 37.8 µM (active) | 
O=C(CSc1ncnc2sc3c(c12)CCCC3)c1ccccc1 | 11.6 µM (active) | 9.61 µM (active) | 28.8 µM (active) | 
CCc1ccc(CN(C)Cc2nc(-c3cccc(Cl)c3)no2)nc1 |  |  |  | EC50 [5]: 18.4 µM (active); EC50 [8]: > 150 µM (not active); EC50 [9]: > 150 µM (not active)
Nc1ccc(C(=O)c2ccc3c(c2)OCCO3)cc1N | 9.68 µM (active) | 8.7 µM (active) | 21.2 µM (active) | IC50 [11]: 22.9 µM (active)

Compound | EC50 [1] | EC50 [2] | EC50 [3] | also measured
CCCn1c(=N)c(C(=O)NC2CCCC2)cc2c(=O)n3cccc(C)c3nc21 | > 120 µM (not active) | > 120 µM (not active) | > 120 µM (not active) | 
O=C(NCc1cccnc1)c1ccc([N+](=O)[O-])cc1 |  |  |  | AC50 [12]: 3.6 µM (active)
CC(=O)Nc1cccc(-n2nnc(SCC(=O)c3ccccc3)n2)c1 | 10.5 µM (active) | 19.8 µM (active) | 2.02 µM (active) | 
COc1ccc(Oc2nc(-c3ccccn3)nc3ccccc23)cc1 |  |  |  | EC50 [5]: 17.1 µM (active); EC50 [8]: > 150 µM (not active); EC50 [9]: > 150 µM (not active)
Cc1ccc(F)c([C@H]2C3C=CCC(c4ccccc4)C3C(=O)N2Cc2ccccc2)c1 (stereo partly specified) |  |  |  | AC50 [12]: 11 µM (active); AC50 [13]: 3.71 µM (active)
CC1CCN(C(C(=O)NC2CCCCC2)c2cc3c(cc2[N+](=O)[O-])OCO3)CC1 (stereo unspecified) | > 120 µM (not active) | 25 µM (active) | 22.1 µM (active) | 
c1ccc(Cn2c(-c3ccco3)nc3nc4ccccc4nc32)cc1 | 11.6 µM (active) | 0.127 µM (inconclusive) | > 120 µM (not active) | 
O=C(NCCSc1ccccc1)c1ccco1 |  | > 120 µM (not active) | 15 µM (active) | 
O=C(c1cc2ccccn2n1)N1CCN(Cc2ccccc2)CC1 | 6.68 µM (active) | 24.1 µM (active) | 9.44 µM (active) | 
O=C(Nc1ccc(N2CCN(C(=O)c3ccc(Cl)cc3)CC2)cc1)c1cccnc1 |  |  |  | AC50 [12]: 5.43 µM (active)
Cc1cccc(Nc2nc(N)nc(CN3CCN(c4ccccc4F)CC3)n2)c1 |  |  |  | EC50 [5]: 7.31 µM (active); EC50 [8]: 45.8 µM (active); EC50 [9]: > 150 µM (not active)
O=C(N/N=C/c1cc(Br)cs1)c1ccc2c(c1)OCCO2 | 0.106 µM (active) |  | > 120 µM (not active) | 
O=C(c1ccc(F)cc1)N1C[C@@H]2N[C@H](C1)[C@@H]2c1ccc(-c2ccc(F)cc2)cc1 |  |  |  | AC50 [14]: 18.3 µM (active)
C[C@@H]1CCCCO[C@H](CN(C)Cc2ccc(C(F)(F)F)cc2)[C@H](C)CN([C@H](C)CO)C(=O)c2cc(NC(=O)Nc3ccc(F)cc3)ccc2O1 |  |  |  | AC50 [14]: 10.7 µM (active)
C[C@@H]1CCCCO[C@H](CN(C)S(=O)(=O)c2ccc(Cl)cc2)[C@H](C)CN([C@@H](C)CO)C(=O)c2cc(N(C)C)ccc2O1 |  |  |  | AC50 [14]: 8.81 µM (active)
COC1C(CO)OC(n2c3c(Cl)cccc3c3c4c(c5c6cccc(Cl)c6[nH]c5c32)C(=O)NC4=O)C(O)C1O (stereo unspecified) |  |  |  | AC50 [14]: 1.11 µM (active)
Cc1cc(C)c([N+](=O)[O-])cc1-c1ccc(/C=N/NC(=O)c2nonc2N)o1 |  |  |  | CC50 [4]: > 50 µM (active)
CCN(CC)c1ccc(/C=N/N2CCOCC2)c(O)c1 |  | 4.58 µM (active) | 20 µM (active) | IC50 [11]: 75.6 µM (active)
O=[N+]([O-])c1cc(S(=O)(=O)/N=C(/c2ccccc2)N2CCOCC2)ccc1Cl | 0.714 µM (active) | 14.6 µM (active) |  | 
Cc1cc(C)c(C2C3=C(Nc4c2c(C)nn4-c2ccccn2)c2ccccc2C3=O)c(C)c1 (stereo unspecified) |  |  |  | EC50 [5]: 7.61 µM (active); EC50 [6]: > 120 µM (not active); EC50 [7]: 19.9 µM (active); EC50 [8]: 128 µM (active); EC50 [9]: 22.2 µM (active); EC50 [10]: 17 µM (active)
Nc1nc2nc[nH]c2c(=S)[nH]1 [THIOGUANINE] |  |  |  | AC50 [14]: 1.18 µM (active)
